According to patent US20110224256A1, “T[…] THE TREATMENT OF PSYCHIATRIC DISORDERS” (priority 2008, published 2011):
“Also recorded” adds a separate entry of the source.

Key:
[1] = tested on: mature and immature animals; conditions: cited from earlier work
Sprague-Dawley male rats [2] = assay: Place conditioning to 10 mg/kg cocaine at P60 after juvenile drug exposure; type: in vivo; conditions: for place conditioning to cocaine-associated environment (pre- vs. post-conditioning): tested at P60, 10 mg/kg cocaine
Experimental: Juvenile Sprague-Dawley male rats were treated with MPH (2 mg/kg, i.p. twice daily), ±7-OHDPAT (0.3 mg/kg, i.p. twice daily), Naf (0.05, 0.5 and 5 mg/kg; i.p. twice daily) or VEH (i.p. twice daily) between the ages of P20 and P35 (Andersen et al., Nat. Neurosci., 5:13-14 (2002)). The MPH dose was selected on the basis of previous studies (see Andersen et al., Nat. Neurosci., 5:13-14 (2002); Bolanos et al., Biol. Psychiatry, 54:1317-1329 (2003); and Mague et al., Biol. Psychiatry, 57:120-125 (2005)), unpublished observations that we find similar behavioral effects if MPH is given i.p. or orally at this dose, and evidence that it approximates a clinically relevant dose in humans based on plasma levels (see Wargin et al., J. Pharmacol. Exp. Ther., 226:382-386 (1983); and Kuczenski, R. & Segal, D. S. J. Neurosci., 22:7264-7271 (2002)). Clinically therapeutic doses of MPH yield plasma levels between 8 and 40 ng/mL (Swanson et al., Behay. Brain Res., 130:73-78 (2002); Teicher et al., Ann. N. Y. Acad. Sci., 1071:313-323 (2006)), with 0.5 mg/kg i.p., achieving plasma levels of 36 ng/mL within 5 min in rats (Berridge et al., Biol. Psychiatry, 60:1111-1120 (2006)). Doses for juvenile exposure to ±7-OHDPAT are based on Neisewander et al., Neuropsychopharmacology, 29:1479-1487 (2004), and cortical microinjections of 10 µg/side were derived from Boulay et al. Prog. Neuropsychopharmacol. Biol. Psychiatry, 24:39-49 (2000). Naf doses below 1 mg/kg have negligible D2 receptor occupancy (Sautel et al., J. Pharmacol. Exp. Ther., 275:1239-1246 (1995)) and are behaviorally effective (Richtand et al., Brain Res., 867:239-242 (2000)). Subjects were weighed daily at 09.00 h and injected with their assigned drug; the second injection was administered 4 h later at 13.00 h. This regimen is designed to match the twice-daily dosing used by children, taking into account the higher metabolic rates of rats (Wargin et al., J. Pharmacol. Exp. Ther., 226:382-386 (1983)). After the second drug administration on P35, the rats received no further treatments until behavioral testing at P60.
Rats treated between P20 and P35 with either Naf (0, 0.05, 0.5 or 5.0 mg/kg; n=7-9), ±7-OHDPAT (0.3 mg/kg; n=9), MPH (2 mg/kg; n=9), or a combination of 2 mg/kg MPH and 0.05 mg/kg Naf (MPH/Naf; n=8) were tested at P60 for place conditioning to 10 mg/kg cocaine. According to standard laboratory methods (Andersen et al., Nat. Neurosci., 5:13-14 (2002); Carlezon, Methods Mol. Med., 84:243-249 (2003)), unbiased place conditioning chambers consisted of two large (24×18×33) side compartments separated by a small (12×18×33 cm) middle compartment. Screening was conducted for 30 min on Day 1. Rats were placed in the middle compartment and allowed to freely explore the apparatus. […] Two days of conditioning (with two sessions per day) occurred on Days 2 and 3 for 60 min (Andersen et al., Nat. Neurosci., 5:13-14 (2002); Carlezon, Methods Mol. Med., 84:243-249 (2003)). During the conditioning sessions, rats received a 1 mL/kg i.p. injection of VEH in the morning (09.00 h) and confined to one side. The rats were then returned to the home cage. Four hours later, rats received 10 mg/kg cocaine and confined to the other side. Sides differed in floor texture, wall colors and lighting, and assignments were counterbalanced. On Day 4, rats were permitted to freely explore the entire apparatus for 30 min in a drug-free state.

Sprague-Dawley male rats [3] = assay: Locomotor activity at 60 days old after juvenile ±7-OHDPAT exposure; type: in vivo; conditions: juvenile ±7-OHDPAT 0.3 mg/kg P20-P35, vs VEH
Experimental: FIG. 6. Locomotor activity in response to a 10 mg/kg challenge with cocaine on the second day of cocaine conditioning in VEH- and ±7-OHDPAT-treated subjects (n=7-8 animals per group). *P<0.05 comparing the 10 mg/kg cocaine groups.
Juvenile Sprague-Dawley male rats were treated with MPH (2 mg/kg, i.p. twice daily), ±7-OHDPAT (0.3 mg/kg, i.p. twice daily), Naf (0.05, 0.5 and 5 mg/kg; i.p. twice daily) or VEH (i.p. twice daily) between the ages of P20 and P35 (Andersen et al., Nat. Neurosci., 5:13-14 (2002)). […]
To further investigate the functional role of the D3 receptor in juvenile psychostimulant treatment, animals were pre-pubertally treated with the D3-preferring agonist ±7-OHDPAT, the D3 antagonist Naf or a MPH/Naf combination. […] Next, juvenile manipulations of the D3 receptor on place conditioning were assessed and compared with each other. […]

Sprague-Dawley male rats [4] = assay: Place conditioning to 10 mg/kg cocaine at P60 after juvenile drug exposure; type: in vivo; conditions: 10 µg/side into MPFCx during conditioning
D2 receptor = conditions: Naf doses below 1 mg/kg; cited from earlier work

SMILES	locomotor activity [1]	place conditioning to 10 mg/kg cocaine associated environment (pre- vs. post-conditioning) (Sprague-Dawley male rats [2]; juvenile exposure P20-P35: MPH 2 mg/kg, ±7-OHDPAT 0.3 mg/kg, or MPH 2 mg/kg + Naf 0.05 mg/kg, tested at P60)	baseline locomotor activity (Sprague-Dawley male rats [3]; 60 days old, P>0.9)	locomotor response to 10 mg/kg cocaine challenge (Sprague-Dawley male rats [3]; second day of cocaine conditioning, P<0.05)	place conditioning to cocaine after ±7-OHDPAT microinjection into the MPFCx (Sprague-Dawley male rats [4]; MPH-exposed subjects)	place conditioning to cocaine after ±7-OHDPAT microinjection into the MPFCx (Sprague-Dawley male rats [4]; MPH-exposed subjects, listed as ±7 OHDPAT)	place conditioning to cocaine after ±7-OHDPAT microinjection into the MPFCx (Sprague-Dawley male rats [4]; VEH-exposed subjects)	place conditioning to cocaine after ±7-OHDPAT microinjection into the MPFCx (Sprague-Dawley male rats [4]; VEH-exposed subjects, listed as ±7 OHDPAT)	D2 receptor occupancy (D2 receptor)	place conditioning to cocaine-associated environment (pre- vs. post-conditioning) (Sprague-Dawley male rats [2]; juvenile Naf 0.05 mg/kg i.p. twice daily P20-P35)	place conditioning to cocaine-associated environment (pre- vs. post-conditioning) (Sprague-Dawley male rats [2]; juvenile Naf 0.5 mg/kg i.p. twice daily P20-P35)	place conditioning to cocaine-associated environment (pre- vs. post-conditioning) (Sprague-Dawley male rats [2]; juvenile Naf 5.0 mg/kg i.p. twice daily P20-P35)
CCCN(CCC)C1CCc2ccc(O)cc2C1 (racemic) [±7-OHDPAT, ±7-hydroxy-N,N-di-n-propyl-2-aminotetralin]	inhibit locomotor activity	Place aversion; also recorded: aversion to the cocaine-associated environment	did not differ from VEH control animals	significantly reduced	reversing the aversion to cocaine; also recorded: produced a place preference to cocaine	significant preference for cocaine-associated environments	no greater effect	significant preference for cocaine-associated environments	–	–	–	–
CCCCN1CCCC1CNC(=O)c1cc(C#N)c2ccccc2c1OC (stereo not shown) [Naf, Nafadotride]	–	–	–	–	–	–	–	–	negligible	significant preference	significant preference	did not form such a preference
CCCN1CCO[C@@H]2c3cc(O)ccc3OC[C@H]21 [PD 128907]	inhibit locomotor activity	–	–	–	–	–	–	–	–	–	–	–
